Experiment [1] concerns the target T1, Human GPR40 (Homo sapiens, UniProt O14842). Put plainly: FLIPR assay, agonist-induced calcium mobilization. It is filed as cell-based. More on the design: expressed in transfected cells. Conditions: GPR40/CHO NFAT BLA cells. The protocol:
(§1) Human and mouse GPR40 stable cell-lines were generated in CHO cells stably expressing NFAT BLA (Beta-lactamase). A human GPR40 stable cell-line was generated in HER cells stably expressing the aequorin expressing reporter. The expression plasmids were transfected using lipofectamine (Life Technologies) following manufacturer's instructions. Stable cell-lines were generated following drug selection.
FLIPR (Fluorimetric Imaging Plate Reader, Molecular Devices) assays were performed to measure agonist-induced calcium mobilization of the stable clones. For the FLIPR assay, one day before assay, GPR40/CHO NFAT BLA cells were seeded into black-wall-clear-bottom 384-well plates (Costar) at 1.4×10e4 cells/20 μL medium/well. The cells were incubated with 20 μl/well of the assay buffer (HMS, 0.1% BSA, 20 mM HEPES, 2.5 mM probenecid, pH 7.4) containing 8 μM fluo-4, AM, 0.08% pluronic acid at room temperature for 100 minutes. Fluorescence output was measured using FLIPR. Compounds were dissolved in DMSO and diluted to desired concentrations with assay buffer. 13.3 μL/well of compound solution was added.

The target in experiment [2] is T1, Human GPR40. Put plainly: Inositol Phosphate Turnover (IP1) Assay. Conditions: HEK cells stably expressing human GPR40, CisBio IP-One kit. It is filed as cell-based. Also on record: expressed in transfected cells; host or cells: HEK cells (stably expressing the aequorin reporter). Here is the method:
as §1
The assay is performed in 384-well format. HEK cells stably expressing human GPR40 are plated at 15,000 cells per well in growth medium (DMEM/10% fetal calf serum). Cell plates are then incubated 16 hours at 37 degrees in a 5% CO2 incubator.
Measurement of Inositol Phosphate Turnover (IP1) is performed using the CisBio IP-One kit (Part number 62IPAPEB). After the 16 hour incubation, the cells are washed with HEPES buffer and 10 ul of stimulation buffer (prepared as described in the kit) is added to each well. In a separate plate, compounds are diluted in DMSO (400-fold over the final concentration in the assay well) and 25 nl is acoustically transferred to the appropriate well in the assay cell plate. The plates are then incubated for 60 minutes at 37 degrees. 10 ul of detection buffer (also prepared as described in the IP-One kit) is added to each well and the plates are incubated for 60 minutes in the dark. The plates are then read in a Perkin Elmer EnVision or equivalent reader able to measure FRET. Fluorescent ratio of emission at 665 and 620 nm is then converted to IP1 concentration by back calculating from an IP1 standard curve prepared at the time of the assay.

Structures are written as SMILES.

T1 sequence (O14842 whole entry): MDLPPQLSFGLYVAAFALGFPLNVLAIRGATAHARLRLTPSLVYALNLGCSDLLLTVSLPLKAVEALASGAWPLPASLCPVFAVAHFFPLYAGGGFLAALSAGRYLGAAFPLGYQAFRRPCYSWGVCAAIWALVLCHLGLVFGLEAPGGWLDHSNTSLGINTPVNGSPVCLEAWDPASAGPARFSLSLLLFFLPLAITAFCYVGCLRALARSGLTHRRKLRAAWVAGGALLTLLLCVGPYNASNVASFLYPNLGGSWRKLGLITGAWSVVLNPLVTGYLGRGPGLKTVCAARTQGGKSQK

On to `CC1=C(c2ccccc2C(F)(F)F)c2cc(COc3cc4c(cn3)[C@H]3[C@@H](C4)[C@@H]3C(=O)O)ccc2CC1` [Example 47, (5aR,6S,6aS)-3-((7-methyl-8-(2-(trifluoromethyl)-phenyl)-5,6-dihydro-naphthalen-2-yl)methoxy)-5,5a,6,6a-tetrahydrocyclo-propa[4,5]cyclopenta[1,2-c]pyridine-6-carboxylic acid], for which the results for the EC50 on Human GPR40 [1] and on Human GPR40 [2] were 11.4 nM and 236 nM, respectively.
Turning to `O=C(O)[C@H]1[C@@H]2Cc3cc(OCc4ccc5c(Br)cn(-c6ccccc6C(F)(F)F)c5c4)ncc3[C@@H]21` [Example 36, (5aR,6S,6aS)-3-({3-bromo-1-[2-(trifluoromethyl)phenyl]-1H-indol-6-yl}methoxy)-5,5a,6,6a-tetrahydrocyclopropa[4,5] cyclopenta[1,2-c]pyridine-6-carboxylic acid], the EC50 on Human GPR40 [1] amounted to 26.9 nM; on Human GPR40 [2], 47.6 nM.
For `Cn1cnc2c([C@H]3CC(C)(C)c4ccc(COc5cc6c(cn5)[C@H]5[C@@H](C6)[C@@H]5C(=O)O)cc43)cccc21` [Example 71], in that order: 13.3 nM and 205 nM.
Take `CC1(C)CCN(c2ccccc2C(F)(F)F)c2cc(COc3cc4c(cn3)[C@H]3[C@@H](C4)[C@@H]3C(=O)O)c(F)cc21` [Example 53, (5aR,6S,6aS)-3-((6-fluoro-4,4-dimethyl-1-(2-(trifluoromethyl)phenyl)-1,2,3,4-tetrahydroquinolin-7-yl)methoxy)-5,5a,6,6a-tetrahydrocyclopropa[4,5]cyclopenta[1,2-c]pyridine-6-carboxylic acid]: the values for the concentration giving a half-maximal response (EC50) on Human GPR40 [1] and at Human GPR40 [2] were 8.38 nM and 39.2 nM, respectively.
Consider `O=C(O)[C@H]1[C@@H]2Cc3cc(OCc4ccc5ccn(-c6ccccc6C(F)(F)F)c5c4)ncc3[C@@H]21` [Example 34, (5aR,6S,6aS)-3-((1-(2-(trifluoromethyl)phenyl)-1H-indol-6-yl)methoxy)-5,5a,6,6a-tetrahydrocyclo-propa[4,5]cyclopenta[1,2-c]pyridine-6-carboxylic acid], for which the results for the concentration for a half-maximal effect (EC50) on Human GPR40 [1] and at Human GPR40 [2] were 33.9 nM and 23.2 nM, respectively.
For `CC1(C)CCC(c2ccccc2C(F)(F)F)c2cc(COc3cc4c(cn3)[C@H]3[C@@H](C4)[C@@H]3C(=O)O)c(F)cc21` (stereo partly drawn) [Example 55, (5aR,6S,6aS)-3-((3-fluoro-5,5-dimethyl-8-(2-(trifluoromethyl)phenyl)-5,6,7,8-tetrahydronaphthalen-2-yl)methoxy)-5,5a,6,6a-tetrahydrocyclopropa[4,5]cyclopenta[1,2-c]pyridine-6-carboxylic acid], in that order: 63.7 nM and 70.2 nM.
On the same counts, the results for `O=C(O)[C@H]1[C@@H]2Cc3cc(OCc4ccc5c(c4)N(c4ccccc4)CCC5)ccc3[C@@H]21` [Example 66, (1S,1aS,6aR)-4-((1-phenyl-1,2,3,4-tetrahydroquinolin-7-yl)methoxy)-1,1a,6,6a-tetrahydrocyclopropa[a]indene-1-carboxylic acid] are 9.77 nM and 72.6 nM.
For `O=C(O)[C@H]1[C@@H]2Cc3cc(OCc4ccc5c(c4)N(c4ccccc4)CCCC5)ncc3[C@@H]21` [Example 62, (5aR,6S,6aS)-3-((1-phenyl-2,3,4,5-tetrahydro-1H-benzo[b]azepin-8-yl)methoxy)-5,5a,6,6a-tetrahydrocyclopropa[4,5]cyclopenta[1,2-c]pyridine-6-carboxylic acid], in that order: 14.6 nM and 42.9 nM.
`O=C(O)[C@H]1[C@@H]2Cc3cc(OCc4ccc5c(c4)C(c4ccccc4C(F)(F)F)CC54COC4)ncc3[C@@H]21` (stereo partly drawn) [Example 7, (5aR,6S,6aS)-3-((3-(2-(trifluoromethyl)phenyl)-2,3-dihydrospiro[indene-1,3′-oxetan]-5-yl)methoxy)-5,5a,6,6a-tetrahydrocyclopropa[4,5]cyclopenta[1,2-c]pyridine-6-carboxylic acid]: the EC50 came out at 32.9 nM on Human GPR40 [1] and 35.3 nM at Human GPR40 [2].
As to `O=C(O)[C@H]1[C@@H]2Cc3cc(OCc4ccc5c(c4)C(c4ccccc4C(F)(F)F)CC5c4ccccc4)ncc3[C@@H]21` (stereo partly drawn) [Example 19, (5aR,6S,6aS)-3-((1-phenyl-3-(2-(trifluoromethyl)phenyl)-2,3-dihydro-1H-inden-5-yl)methoxy)-5,5a,6,6a-tetrahydrocyclopropa[4,5]cyclopenta[1,2-c]pyridine-6-carboxylic acid], the EC50 was determined as 15.5 nM at Human GPR40 [1] and 17.5 nM at Human GPR40 [2].
With `O=C(O)[C@H]1[C@@H]2Cc3cc(OCc4cc5c(cc4F)C(F)(F)CC5c4ccccc4C(F)(F)F)ncc3[C@@H]21` (single isomer, unassigned) [Example 69], the 50% effective concentration (EC50) on Human GPR40 [1] came out at 1.51 nM; at Human GPR40 [2] it was 8.85 nM.
For `O=C(O)[C@H]1[C@@H]2Cc3cc(OCc4ccc5c(c4)C(c4ccccc4C(F)(F)F)CC5c4ccccc4)ncc3[C@@H]21` (stereo partly drawn) [Example 18, (5aR,6S,6aS)-3-((1-phenyl-3-(2-(trifluoromethyl)phenyl)-2,3-dihydro-1H-inden-5-yl)methoxy)-5,5a,6,6a-tetrahydrocyclopropa[4,5]cyclopenta[1,2-c]pyridine-6-carboxylic acid], in that order: 13.2 nM and 24.6 nM.
For `O=C(O)[C@H]1[C@@H]2Cc3cc(OCc4ccc5c(c4)N(c4ccccc4)CCO5)ncc3[C@@H]21` [Example 61, (5aR,6S,6aS)-3-((4-phenyl-3,4-dihydro-2H-benzo[b][1,4]oxazin-6-yl)methoxy)-5,5a,6,6a-tetrahydrocyclopropa[4,5]cyclopenta[1,2-c]pyridine-6-carboxylic acid], in that order: 40.5 nM and 653 nM.
On the same counts, the results for `Cc1ccccc1N1CCCc2ccc(COc3ccc4c(c3)C[C@H]3[C@H](C(=O)O)[C@@H]43)cc21` [Example 68, (1S,1aS,6aR)-4-((1-(o-tolyl)-1,2,3,4-tetrahydroquinolin-7-yl)methoxy)-1,1a,6,6a-tetrahydrocyclopropa[a] indene-1-carboxylic acid] are 24.7 nM and 64.9 nM.
With `CC1(C)CN(c2ccccc2C(F)(F)F)c2cc(COc3cc4c(cn3)[C@H]3[C@@H](C4)[C@@H]3C(=O)O)c(F)cc21` [Example 32, (5aR,6S,6aS)-3-((5-fluoro-3,3-dimethyl-1-(2-(trifluoromethyl)phenyl)indolin-6-yl)methoxy)-5,5a,6,6a-tetrahydrocyclopropa[4,5]cyclopenta[1,2-c]pyridine-6-carboxylic acid], the results for the concentration for a half-maximal effect (EC50) at Human GPR40 [1] and on Human GPR40 [2] were 8.94 nM and 9.96 nM, respectively.
`CN1C(c2ccccc2C(F)(F)F)c2cc(COc3cc4c(cn3)[C@H]3[C@@H](C4)[C@@H]3C(=O)O)ccc2C1(C)C` (stereo partly drawn) [Example 38, (5aR,6S,6aS)-3-((1,1,2-trimethyl-3-(2-(trifluoromethyl)phenyl)isoindolin-5-yl)methoxy)-5,5a,6,6a-tetrahydrocyclopropa[4,5]cyclopenta[1,2-c]pyridine-6-carboxylic acid]: the EC50 at Human GPR40 [1] came to 5.35 nM; at Human GPR40 [2], 11.9 nM.
As for `CC1(C)CNC(c2ccccc2C(F)(F)F)c2c1ccc(COc1cc3c(cn1)[C@H]1[C@@H](C3)[C@@H]1C(=O)O)c2F` (stereo partly drawn) [Example 74, (5aR,6S,6aS)-3-((8-fluoro-4,4-dimethyl-1-(2-(trifluoromethyl)phenyl)-1,2,3,4-tetrahydroisoquinolin-7-yl)methoxy)-5,5a,6,6a-tetrahydrocyclopropa[4,5]cyclopenta[1,2-c]pyridine-6-carboxylic acid], the EC50 worked out at 6.75 nM at Human GPR40 [1] and 4.99 nM at Human GPR40 [2].
For `CC1(C)CC(c2ccc(OCCCS(C)(=O)=O)cc2C(F)(F)F)c2cc(COc3cc4c(cn3)[C@H]3[C@@H](C4)[C@@H]3C(=O)O)c(F)cc21` (stereo partly drawn) [Example 28, (6S)-3-((6-fluoro-1,1-dimethyl-3-(4-(3-(methylsulfonyl)propoxy)-2-(trifluoromethyl)phenyl)-2,3-dihydro-1H-inden-5-yl)methoxy)-5,5a,6,6a-tetrahydrocyclopropa[4,5]cyclopenta[1,2-c]pyridine-6-carboxylic acid], in that order: 6.9 nM and 41.2 nM.
For `O=C(O)[C@H]1[C@@H]2Cc3cc(OCc4ccc5c(c4)N(c4ccccn4)CCC5)ccc3[C@@H]21` [Example 67, (1S,1aS,6aR)-4-((1-(pyridin-2-yl)-1,2,3,4-tetrahydroquinolin-7-yl)methoxy)-1,1a,6,6a-tetrahydrocyclopropa[a] indene-1-carboxylic acid], in that order: 28.9 nM and 169 nM.

These data come from patent US10000454B2, “Antidiabetic tricyclic compounds” (Merck Sharp & Dohme Corp., priority 2014, dated 2018).
